These results are taken from patent publication US12502355B2, “Solid pharmaceutical formulations of 6-(2-chloro-6-methylpyridin-4-yl)-5-(4-fluorophenyl)-1,2,4-triazin-3-amine” (AstraZeneca AB, priority 2019, dated 2025).

The term pKa denotes the negative logarithm of the acid dissociation constant. The low end stands for a group that gives up its proton readily, the high end for a group that holds its proton tightly. As a reminder, the logP is the decadic logarithm of the partition coefficient of the neutral form, usually between octanol and water. As a reminder, the solubility is the concentration that dissolves in the medium under given conditions. Read a low solubility as little dissolved substance.

Converted amounts (≈) assume the structure as drawn. A value given as a limit tells only on which side of the number the result lay.

Holding throughout (assay type): physicochemical
Data set [1] is described as follows: physchem.
A further data set in a line: log P of Compound 1.
Data set [2] in a line: physchem. This is another data set of the same source.
Data set [3] can be described thus: Solubility screens for formulation strategies (lipidic, mesoporous silica, spray drying). An excerpt:
The inventors investigated multiple strategies to make an effective solid formulation, including: • Conventional immediate release tablets. […] Screen of co-crystal former molecules was unsuccessful in identifying a suitable co-crystal form. • Lipid formulation: Compound 1 is a neutral molecule, and not lipophilic.

In “physchem [1]”, `Cc1cc(-c2nnc(N)nc2-c2ccc(F)cc2)cc(Cl)n1` [Compound 1, 6-(2-chloro-6-methylpyridin-4-yl)-5-(4-fluorophenyl)-1,2,4-triazin-3-amine] gave a pKa of 1.78. The same compound returned a logP in “log P of Compound 1” of 2.8. The solubility is 5.8 µg/mL (≈ 18.4 µM) in “physchem [2]” (fassif); 29.8 µg/mL (≈ 94.4 µM) in the data set “physchem [2]” (pH 1.2, simulated gastric fluid); less than 5 µg/mL in the data set “physchem [2]” (pH 7, aqueous buffer). In addition, the “solubility in solvents suitable for spray drying” value in data set [3] is listed as “limited solubility”. Further, in data set [3], the “solubility in suitable solvent for mesoporous silica formulation” value was “inadequate”. Further, the “solubility in suitable excipients for a lipidic formulation” value in data set [3] (lipidic screen) is reported as “did not show significant solubility”.
